{"source": "paper PMC6426458", "about": "(Science Advances, 2019)", "key": {"relMtb-deficient Mtb": {"system": "relMtb-deficient Mtb", "settings": "nutrient-rich broth; cited from earlier work"}, "[1]": {"target": "T1, RelMtb (truncated, residues 53 to 446) (Mycobacterium tuberculosis, UniProt P9WHG9)", "T1 sequence (P9WHG9 1-394)": "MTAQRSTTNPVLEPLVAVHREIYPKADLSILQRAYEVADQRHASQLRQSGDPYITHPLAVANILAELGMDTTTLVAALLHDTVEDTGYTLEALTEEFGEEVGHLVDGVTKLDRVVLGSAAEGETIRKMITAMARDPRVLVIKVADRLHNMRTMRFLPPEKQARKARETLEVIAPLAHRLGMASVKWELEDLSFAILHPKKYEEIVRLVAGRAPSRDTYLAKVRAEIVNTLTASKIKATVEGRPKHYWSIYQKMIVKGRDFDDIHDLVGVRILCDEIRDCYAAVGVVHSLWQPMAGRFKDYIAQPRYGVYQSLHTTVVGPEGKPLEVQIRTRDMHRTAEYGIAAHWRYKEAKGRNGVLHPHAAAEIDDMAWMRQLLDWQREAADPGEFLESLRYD", "test": "RelMtb enzymatic fluorescence polarization", "type": "biochemical"}, "Δrel": {"system": "Δrel", "design": "species or system Mycobacterium tuberculosis", "settings": "in vivo"}, "[2]": {"system": "nutrient-starved empty vector control (CDC1551)", "type": "cell-based, Mycobacterium tuberculosis", "settings": "INH 15.36 μg/ml, 7 days of exposure"}, "WT H37Rv": {"system": "WT H37Rv", "design": "species or system Mycobacterium tuberculosis", "settings": "in vivo"}, "[3]": {"system": "Mtb following exposure to NS", "settings": "cited from earlier work"}, "[4]": {"system": "rel Comp (relMtb-complemented strain)", "type": "cell-based, Mycobacterium tuberculosis"}, "rel Comp": {"system": "rel Comp", "design": "species or system Mycobacterium tuberculosis", "settings": "in vivo"}, "WT Mtb H37Rv": {"system": "WT Mtb H37Rv", "type": "cell-based, Mycobacterium tuberculosis"}, "[5]": {"system": "Δrel (H37Rv deficient in Rv2583c/relMtb)", "type": "cell-based, Mycobacterium tuberculosis", "settings": "nutrient-rich broth"}}}
{"smiles": "CO[C@H]1/C=C/O[C@@]2(C)Oc3c(C)c(O)c4c(O)c(c(/C=N/N5CCN(C)CC5)c(O)c4c3C2=O)NC(=O)/C(C)=C\\C=C\\[C@H](C)[C@H](O)[C@@H](C)[C@@H](O)[C@@H](C)[C@H](OC(C)=O)[C@@H]1C", "note": "[rifampin]", "values": [{"measurement": "MIC against relMtb-deficient Mtb compared with the WT strain", "setting": "relMtb-deficient Mtb", "value": "the same as that against the WT strain"}]}
{"smiles": "Nc1ncnc2c1ncn2[C@@H]1O[C@H](COP(=O)(O)CP(=O)(O)OP(=O)(O)O)[C@@H](O)[C@H]1O", "note": "[AMPCPP, α,β-methylene analogue of ATP]", "values": [{"measurement": "IC50", "setting": "[1]", "value": 6.2, "unit": "mM"}]}
{"smiles": "NNC(=O)c1ccncc1", "note": "[INH, isoniazid]", "values": [{"measurement": "bacilli killed in the lungs during 2 weeks of treatment", "setting": "Δrel", "value": 2.03, "unit": "log10"}, {"measurement": "mean reduction of bacterial density (CFU/ml)", "setting": "[2]", "value": 1.43, "unit": "log10 CFU"}, {"measurement": "reduction of lung bacillary burden relative to the start of treatment", "setting": "WT H37Rv", "value": 0.11, "unit": "log10"}, {"measurement": "fold increase in the MBC of INH", "setting": "[3]", "value": "> 100", "unit": "fold"}, {"measurement": "MIC against relMtb-deficient Mtb compared with the WT strain", "setting": "relMtb-deficient Mtb", "value": "the same as that against the WT strain"}, {"measurement": "fold increase of MBC of INH", "setting": "[4]; 7 days of NS versus nutrient-rich broth", "value": 512, "unit": "fold"}, {"measurement": "fold decrease of MBC of INH", "setting": "[4]; 7 days of NS, in the presence of 4 μM X9", "value": 16, "unit": "fold"}, {"measurement": "MBC of INH (concentration required to kill 99%)", "setting": "[4]; nutrient-rich broth", "value": 0.06, "unit": "µg/mL"}, {"measurement": "reduction of lung bacterial load", "setting": "rel Comp", "value": 0.48, "unit": "log10"}, {"measurement": "MBC of INH (concentration required to kill 99%)", "setting": "WT Mtb H37Rv", "value": 0.06, "unit": "µg/mL"}, {"measurement": "fold decrease of MBC of INH", "setting": "WT Mtb H37Rv", "value": 16, "unit": "fold"}, {"measurement": "fold increase of MBC of INH", "setting": "WT Mtb H37Rv", "value": 512, "unit": "fold"}, {"measurement": "MBC of INH (concentration required to kill 99%)", "setting": "[5]", "value": 0.06, "unit": "µg/mL"}]}
{"smiles": "Nc1nc2c(ncn2[C@@H]2O[C@H](COP(=O)(O)OP(=O)(O)OP(=O)(O)O)C[C@H]2O)c(=O)[nH]1", "note": "[3′-dGTP]", "values": [{"measurement": "IC50", "setting": "[1]", "value": 4, "unit": "mM"}]}
{"smiles": "Nc1nc2c(ncn2[C@@H]2O[C@H](COP(=O)(O)OP(=O)(O)OP(=O)(O)OP(=O)(O)OC[C@H]3O[C@@H](n4cnc5c(N)ncnc54)[C@H](O)[C@@H]3O)[C@@H](O)[C@H]2O)c(=O)[nH]1", "note": "[AP4G]", "values": [{"measurement": "IC50", "setting": "[1]", "value": 1.8, "unit": "mM"}]}
